Test results taken from ChEMBL document CHEMBL1146291, “Structure-activity delineation of quinones related to the biologically active Calothrixin B” (Bioorg Med Chem Lett, 2007).

Key:
[1] = system: P388; experiment: Cytotoxicity against mouse P388 cells by MTT assay; assay type: functional, cell-based
[2] = system: HeLa; experiment: Cytotoxicity against human HeLa cells by MTT assay; assay type: functional, cell-based
[3] = Cytotoxicity against CV1 cells by MTT assay; assay type: cell-based; settings: Chlorocebus aethiops, CV-1

SMILES	EC50 [1]	EC50 [2]	EC50 [3]
CC1=CC(=O)c2c([nH]c3ccccc23)C1=O	1 µM	7 µM	1.7 µM
O=C1C=CC(=O)c2c1[nH]c1ccccc21	> 50 µM	> 50 µM	> 50 µM
O=C1c2[nH]c3ccccc3c2C(=O)c2ccc3ccccc3c21	> 50 µM	1.5 µM	> 50 µM
O=C1c2ccccc2C(=O)c2c1[nH]c1ccccc21 [BENZOCARBAZOLEDIONE]	> 50 µM	1.8 µM	> 50 µM
O=C1c2[nH]c3ccccc3c2C(=O)c2cnc3ccccc3c21 [CALOTHRIXIN B]	9 µM	0.25 µM	2.4 µM
CC1=CC(=O)c2[nH]c3ccccc3c2C1=O [MURRAYAQUINONE A]	2.3 µM	13 µM	10 µM
